Assay results as given in patent US7179825B2, “Retinoic acid mimetic anilides” (Janssen Pharmaceutica N.V., priority 1997, dated 2007).

Tested on: Ovariectomized rats
Experiment: Vaginal keratinization test on ovariectomized rats (Example C.2)
Type: in vivo
Settings: Rattus norvegicus, po, estradiol undecylate induced keratinization, per os once daily on days 1-3, active dose = 50% of rats show complete suppression, read-out: LAD (lowest active dose)
Source text: The property to delay the metabolism of retinoic acid can be evidenced in various in vitro and in vivo experiments. A particular in vitro procedure is described in example C.1 and tests the inhibitory activity of the compounds of formula (I) on the metabolism of retinoic acid in human breast cancer cells. The compounds of the present invention were also effective in suppressing induced vaginal keratinization effects in ovariectomized rats as is described in example C.2.
“Vaginal Keratinization Test on Ovariectomized Rats”
Ovariectomized rats were injected subcutaneously with a sesame oil solution containing 100 μg of estradiol undecylate in a volume of 0.1 ml per 100 g body weight and control animals were injected with sesame oil. On day one, two and three, test animals were treated once daily with a per os dose of the test compound and control animals with the drug vehicle (PEG 200). One day after the last treatment, the animals were sacrificed and their vaginas were processed for histological evaluation according to the method described in J. Pharmacol. Exp. Ther. 261(2), 773–779 (1992). A dose at which 50% of the tested rats show complete suppression of the estradiol undecylate induced keratinization effects is defined as an active dose. Table 23 lists the lowest active dose (LAD in mg/kg) of the compounds of formula (I) which were tested.

SMILES	minimal effective dose
CCC(CC)C(c1ccc(NC(=S)Nc2nc3ccccc3s2)cc1)n1ccnc1 (racemic) [Compound 705, (±)-N-(2-benzothiazolyl)-N′-[4-[1-(1H-imidazol-1-yl)-2-ethylbutyl]phenyl]-thiourea]	> 5 mg/kg
CC(=O)Nc1ccc(C(C(C)C)n2ccnc2)cc1 (racemic) [Compound 521, (±)-N-[4-[1-(1H-imidazol-1-yl)-2-methylpropyl]phenyl]acetamide]	10 mg/kg

Same assay, conditions: estradiol undecylate induced keratinization, per os once daily on days 1-3, active dose = 50% of rats show complete suppression

SMILES	LAD (lowest active dose)
COc1ccc(CC(=O)Nc2ccc(C(C3CCCN(C)C3)n3ccnc3)cc2)cc1OC (single isomer, unassigned) [Compound 410]	>5.00 mg/kg
CCCC(C)C(c1ccc(NC(=O)Cc2ccc(Cl)cc2)cc1)n1ccnc1 (single isomer, unassigned) [Compound 374]	2.50 mg/kg
CC(C(c1ccc(NC(=O)Cc2ccc(O)c(Cl)c2)cc1)n1cncn1)N(C)C (single isomer, unassigned) [Compound 284]	2.50 mg/kg
COc1ccc(CC(=O)Nc2ccc(C(C(C)N(C)C)n3cncn3)cc2)cc1OC (single isomer, unassigned) [Compound 278]	2.50 mg/kg
CCOc1ccc(CC(=O)Nc2ccc(C(C(C)N(C)C)n3ccnc3)cc2)cc1OCC (single isomer, unassigned) [Compound 300]	>2.50 mg/kg
CCCC(C)C(c1ccc(NC(=O)Cc2ccc(Cl)cc2)cc1)n1cncn1 (racemic) [Compound 638]	>2.50 mg/kg
CCN(CC)C(C)C(c1ccc(NC(C)=O)cc1)n1ccnc1 (single isomer, unassigned) [Compound 555]	>2.50 mg/kg
CCC(c1ccc(NC(C)=O)cc1)(C(C)C)n1ccnc1 (stereo not drawn) [Compound 754]	10.00 mg/kg
COc1ccc(CC(=O)Nc2ccc(C(C3CCCCN3C)n3ccnc3)cc2)cc1OC (single isomer, unassigned) [Compound 411]	2.50 mg/kg
COc1ccc(CC(=O)Nc2ccc(C(C(C)N(C)CCN(C)C)n3ccnc3)cc2)cc1OC (single isomer, unassigned) [Compound 407]	>5.00 mg/kg
CNC(C)C(c1ccc(NC(=O)Cc2ccc(OC)c(OC)c2)cc1)n1ccnc1.O (single isomer, unassigned) [Compound 401]	>2.50 mg/kg
COc1ccc(CCCC(=O)Nc2ccc(C(C(C)N(C)C)n3ccnc3)cc2)cc1OC.O=C(O)C(=O)O (single isomer, unassigned) [Compound 431]	>2.50 mg/kg
CCC(CC)C(c1ccc(NC(=O)Cc2ccc(OC)c(Cl)c2)cc1)n1cncn1 (racemic) [Compound 74]	2.50 mg/kg
CC(C(c1ccc(NC(=O)Cc2ccc3c(c2)OCO3)cc1)n1ccnc1)N(C)C (single isomer, unassigned) [Compound 340]	2.50 mg/kg
COc1ccc(CCCC(=O)Nc2ccc(C(C(C)N(C)C)n3cncn3)cc2)cc1OC (single isomer, unassigned) [Compound 326]	>2.50 mg/kg
COc1cc(CC(=O)Nc2ccc(C(C(C)N(C)C)n3ccnc3)cc2)cc(OC)c1OC (single isomer, unassigned) [Compound 428]	>2.50 mg/kg
COc1ccc(CC(=O)Nc2ccc(C(C(C)N(C)C)n3ccnc3)cc2)cc1C (single isomer, unassigned) [Compound 312]	>2.50 mg/kg
CCC(C(c1ccc(NC(C)=O)cc1)n1ccnc1)N(C)C (single isomer, unassigned) [Compound 557]	>5.00 mg/kg
COc1ccc(CC(=O)Nc2ccc(C(C(C)CN(C)C)n3ccnc3)cc2)cc1OC (single isomer, unassigned) [Compound 392]	>5.00 mg/kg
CCCN(C)C(C)C(c1ccc(NC(=O)Cc2ccc(OC)c(OC)c2)cc1)n1ccnc1 (single isomer, unassigned) [Compound 414]	5.00 mg/kg
CCN(CC)C(C)C(c1ccc(NC(=O)Cc2ccc(OC)c(OC)c2)cc1)n1ccnc1 (single isomer, unassigned) [Compound 387]	>2.50 mg/kg
COc1cc(CC(=O)Nc2ccc(C(C(C)N(C)C)n3cncn3)cc2)ccc1C (single isomer, unassigned) [Compound 295]	>2.50 mg/kg
COc1cc(CC(=O)Nc2ccc(C(C(C)N(C)C)n3ccnc3)cc2)ccc1C (single isomer, unassigned) [Compound 314]	>2.50 mg/kg

SMILES	LAD (lowest active dose)
CC(C(c1ccc(NC(=O)Cc2ccc3c(c2)OCCO3)cc1)n1cncn1)N(C)C (single isomer, unassigned) [Compound 333]	>2.50 mg/kg
Cc1ccc(CC(=O)Nc2ccc(C(C(C)N(C)C)n3cncn3)cc2)cc1C (single isomer, unassigned) [Compound 280]	>2.50 mg/kg
CCC(CC)C(c1ccc(NC(=O)Cc2c(OC)cccc2OC)cc1)n1ccnc1 (racemic) [Compound 114]	2.50 mg/kg
COc1ccc(CC(=O)Nc2ccc(C(C(C)N(C)Cc3ccccc3)n3ccnc3)cc2)cc1OC (single isomer, unassigned) [Compound 396]	>2.50 mg/kg
COc1ccc(CC(=O)Nc2ccc(C(C(C)OC(=O)N(Cc3ccccc3)Cc3ccccc3)n3ccnc3)cc2)cc1OC (single isomer, unassigned) [Compound 417]	>5.00 mg/kg
Cc1ccc(CC(=O)Nc2ccc(C(CN(C)C)n3ccnc3)cc2)cc1C (racemic) [Compound 433]	>2.50 mg/kg
CCOC(=O)CC(c1ccc(NC(=O)Cc2ccc(OC)c(OC)c2)cc1)n1ccnc1 (stereo not drawn) [Compound 395]	>5.00 mg/kg
COc1ccc(NC(=O)Nc2ccc(C(C(C)N(C)C)n3cncn3)cc2)cc1OC (single isomer, unassigned) [Compound 720]	>2.50 mg/kg
COc1ccc(CC(=O)Nc2ccc(C(CCO)n3ccnc3)cc2)cc1OC (stereo not drawn) [Compound 403]	>5.00 mg/kg
COc1ccccc1OCC(=O)Nc1ccc(C(C(C)N(C)C)n2ccnc2)cc1 (single isomer, unassigned) [Compound 350]	>2.50 mg/kg
CCCCCC(C)C(c1ccc(NC(=O)/C(C)=C/c2ccccc2)cc1)n1ccnc1 (single isomer, unassigned) [Compound 487]	>5.00 mg/kg
COc1ccc(CC(=O)Nc2ccc(C(C(C)N(C)C)n3cncn3)cc2)cc1C (single isomer, unassigned) [Compound 281]	>2.50 mg/kg
COc1ccc(CC(=O)Nc2ccc(C(C(C)CN(C)C)n3ccnc3)cc2)cc1OC (single isomer, unassigned) [Compound 391]	>5.00 mg/kg
CC(C(c1ccc(NC(=O)Cc2ccc3c(c2)OCCO3)cc1)n1cncn1)N(C)C (single isomer, unassigned) [Compound 322]	>2.50 mg/kg
COc1ccc(CC(=O)Nc2ccc(C(C(C)CO)n3ccnc3)cc2)cc1OC (racemic) [Compound 394, (±)-(B)-3,4-dimethoxy-N-[4-[1-(1H-imidazol-1-yl)-2-(hydroxymethyl)propyl]phenyl]-benzeneacetamide]	>2.50 mg/kg
COCC(c1ccc(NC(=O)Cc2ccc(OC)c(OC)c2)cc1)n1ccnc1 (racemic) [Compound 397]	>2.50 mg/kg
COc1ccc(CC(=O)Nc2ccc(C(C(C)N3CCOCC3)n3ccnc3)cc2)cc1OC (single isomer, unassigned) [Compound 409]	5.00 mg/kg
CC(C(c1ccc(NC(=S)Nc2nc3ccccc3s2)cc1)n1ccnc1)N(C)C (single isomer, unassigned) [Compound 704]	>5.00 mg/kg
CCC(CC)C(c1ccc(NC(=O)C2CCN(C)CC2)cc1)n1ccnc1 (racemic) [Compound 59]	>2.50 mg/kg
COc1ccc(CC(=O)Nc2ccc(C(C(C)CN3CCCCC3)n3ccnc3)cc2)cc1OC (single isomer, unassigned) [Compound 390]	>2.50 mg/kg
COc1ccc(C(=O)Nc2ccc(C(C(C)N(C)C)n3ccnc3)cc2)cc1OC (single isomer, unassigned) [Compound 342]	>2.50 mg/kg
CCN(CC)C(C)C(c1ccc(NC(C)=O)cc1)n1cncn1 (single isomer, unassigned) [Compound 647]	>5.00 mg/kg
COc1ccc(C(=O)Nc2ccc(C(C(C)N(C)C)n3cncn3)cc2)cc1OC (single isomer, unassigned) [Compound 324]	>2.50 mg/kg
